Results published in ChEMBL document CHEMBL1201862, “PubChem BioAssay data set” (2004).
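Compound exposure: 48 hours, 5 concentrations, 96-well plates. At the GI50, growth is halved.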 Activity calls are given as the source filed them. No stated cut-off is given here; in the data, active = GI50 up to about 1.1 µM and inactive = higher.

Legend:
Experiment in all cases: NCI tumour cell line growth inhibition, 48 h
SK-OV-3 = system: SK-OV-3
SK-MEL-28 = system: SK-MEL-28
OVCAR-8 = system: OVCAR-8
RXF 393 = system: RXF 393
786-0 = system: 786-0
SNB-75 = system: SNB-75
SW-620 = system: SW-620
K562 = system: K562
COLO 205 = system: COLO 205
TK-10 = system: TK-10
UACC-62 = system: UACC-62
IGROV-1 = system: IGROV-1
HOP-92 = system: HOP-92
M14 = system: M14
SF-539 = system: SF-539
RPMI-8226 = system: RPMI-8226
SF-295 = system: SF-295
EKVX = system: EKVX

Measured: GI50

CC(=O)N(O)Cc1ccccc1
inactive: SK-OV-3 > 100 µM | SK-MEL-28 > 100 µM | OVCAR-8 > 100 µM | RXF 393 > 100 µM | 786-0 > 100 µM | SNB-75 67.9 µM | SW-620 > 100 µM | K562 > 100 µM | COLO 205 > 100 µM | TK-10 > 100 µM | UACC-62 > 100 µM | IGROV-1 > 100 µM | HOP-92 > 100 µM | M14 > 100 µM | SF-539 > 100 µM | RPMI-8226 > 100 µM | SF-295 > 100 µM

NCC(=O)OCN1C(=O)C2C3C=CC(C2C1=O)C1C2C(=O)N(COC(=O)CN)C(=O)C2C31 (configuration not stated)
inactive: SK-OV-3 60.8 µM | EKVX > 100 µM | SK-MEL-28 19.5 µM | OVCAR-8 20.3 µM | RXF 393 24 µM | 786-0 19.6 µM | SNB-75 32.3 µM | SW-620 24.4 µM | K562 28.6 µM | COLO 205 18.2 µM | TK-10 53.1 µM | UACC-62 24.2 µM | IGROV-1 40.2 µM | HOP-92 > 100 µM | M14 18.9 µM | SF-539 18.9 µM | RPMI-8226 28 µM | SF-295 53.7 µM

C=CCNC(=O)N(CCCCC(NC(C)=O)C(=O)NCc1ccccc1)Cc1ccccc1 (configuration not stated)
inactive: SK-OV-3 > 100 µM | EKVX > 100 µM | SK-MEL-28 > 100 µM | OVCAR-8 > 100 µM | RXF 393 > 100 µM | 786-0 > 100 µM | SNB-75 > 100 µM | SW-620 > 100 µM | K562 > 100 µM | COLO 205 > 100 µM | TK-10 > 100 µM | UACC-62 > 100 µM | IGROV-1 > 100 µM | HOP-92 65.8 µM | M14 > 100 µM | SF-539 > 100 µM | RPMI-8226 > 100 µM | SF-295 > 100 µM

Cn1c(-c2ccccc2)c/c(=N\NS(C)(=O)=O)c2cc(S(=O)(=O)O)ccc21
inactive: SK-OV-3 > 100 µM | EKVX > 100 µM | SK-MEL-28 > 100 µM | OVCAR-8 > 100 µM | RXF 393 > 100 µM | 786-0 > 100 µM | SNB-75 > 100 µM | SW-620 > 100 µM | K562 > 100 µM | COLO 205 > 100 µM | TK-10 > 100 µM | UACC-62 > 100 µM | IGROV-1 > 100 µM | HOP-92 > 100 µM | M14 > 100 µM | SF-539 > 100 µM | RPMI-8226 > 100 µM | SF-295 > 100 µM

c1ccc(CN(Cc2ccccn2)Cn2cccn2)nc1
inactive: SK-OV-3 43 µM | EKVX 34.9 µM | SK-MEL-28 15.7 µM | OVCAR-8 32.8 µM | RXF 393 57.5 µM | 786-0 91.2 µM | SNB-75 > 100 µM | SW-620 48 µM | K562 36.6 µM | COLO 205 57.1 µM | TK-10 > 100 µM | UACC-62 20.3 µM | HOP-92 52.6 µM | M14 25.9 µM | SF-539 > 100 µM | RPMI-8226 28.9 µM | SF-295 62.7 µM

CCOC(=O)N1C/C(=C\c2ccc(N(C)C)cc2)C(=O)/C(=C/c2ccc(N(C)C)cc2)C1
inactive: SK-OV-3 > 100 µM | EKVX > 100 µM | SK-MEL-28 > 100 µM | OVCAR-8 > 100 µM | RXF 393 > 100 µM | 786-0 > 100 µM | SNB-75 > 100 µM | SW-620 > 100 µM | K562 > 100 µM | COLO 205 > 100 µM | TK-10 > 100 µM | UACC-62 > 100 µM | IGROV-1 > 100 µM | HOP-92 > 100 µM | M14 > 100 µM | SF-539 > 100 µM | RPMI-8226 > 100 µM | SF-295 > 100 µM

NC(=S)N/N=C(/CC(=O)c1ccccc1)C(=O)Nc1ccc(Cl)c(Cl)c1
inactive: SK-OV-3 > 100 µM | EKVX 33 µM | SK-MEL-28 > 100 µM | OVCAR-8 47.6 µM | RXF 393 > 100 µM | 786-0 59.7 µM | SNB-75 > 100 µM | SW-620 78.5 µM | K562 > 100 µM | COLO 205 > 100 µM | TK-10 > 100 µM | UACC-62 27.4 µM | IGROV-1 65.2 µM | HOP-92 40 µM | M14 > 100 µM | SF-539 > 100 µM | RPMI-8226 73.3 µM | SF-295 61.9 µM

O=C(CO)CC(=O)C(=O)Nc1nc([N+](=O)[O-])cs1
inactive: SK-OV-3 > 100 µM | EKVX > 100 µM | SK-MEL-28 > 100 µM | OVCAR-8 > 100 µM | RXF 393 > 100 µM | 786-0 > 100 µM | SNB-75 55.1 µM | SW-620 > 100 µM | K562 > 100 µM | COLO 205 > 100 µM | TK-10 > 100 µM | UACC-62 > 100 µM | IGROV-1 > 100 µM | HOP-92 > 10 µM | M14 > 100 µM | SF-539 > 100 µM | RPMI-8226 > 100 µM | SF-295 > 100 µM

O=S(=O)(c1ccccc1)C(CN1CCCCC1)S(=O)(=O)c1ccccc1
inactive: SK-OV-3 > 100 µM | SK-MEL-28 > 100 µM | OVCAR-8 > 100 µM | RXF 393 > 100 µM | 786-0 > 100 µM | SNB-75 > 100 µM | SW-620 > 100 µM | K562 > 100 µM | COLO 205 > 100 µM | TK-10 > 100 µM | UACC-62 > 100 µM | IGROV-1 > 100 µM | HOP-92 > 100 µM | M14 > 100 µM | SF-539 > 100 µM | RPMI-8226 > 100 µM | SF-295 > 100 µM

CCCCCCCOc1ccc(/C=C\c2cc[n+](CCCCCCCC[n+]3ccc(/C=C\c4ccc(OCCCCCCC)cc4)cc3)cc2)cc1
inactive: SK-OV-3 28.1 µM | EKVX > 100 µM | SK-MEL-28 17.6 µM | OVCAR-8 20.7 µM | RXF 393 > 100 µM | 786-0 14.7 µM | SNB-75 > 100 µM | COLO 205 10.7 µM | TK-10 23.9 µM | UACC-62 35.3 µM | IGROV-1 11.3 µM | HOP-92 > 100 µM | M14 17.5 µM | SF-539 65.5 µM | RPMI-8226 7.29 µM | SF-295 13.3 µM

CCC1(O)C(=O)OCc2c1cc1n(c2=O)Cc2cc3cc(OC)c(OC)cc3nc2-1 (configuration not stated)
inactive: SK-OV-3 19.7 µM | EKVX > 100 µM | SK-MEL-28 > 100 µM | OVCAR-8 82.4 µM | RXF 393 16.9 µM | 786-0 6.28 µM | SNB-75 15 µM | K562 78.5 µM | COLO 205 32.6 µM | TK-10 > 100 µM | UACC-62 > 10 µM | IGROV-1 13.9 µM | HOP-92 > 100 µM | M14 26.4 µM | SF-539 5.74 µM | RPMI-8226 46.8 µM | SF-295 10.9 µM
